Measurements from patent US20260285850A1, “SUBSTITUTED OXAZOLIDINONES AND IMIDAZOLINONES AS HERBICIDES” (FMC CORPORATION, priority 2023, published 2026).

Assays:
Type in all cases: in vivo
[1] = test system: blackgrass (Alopecurus myosuroides); experiment: Test A postemergence application, visual injury rating 0-100
In short: (§1)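 Visual injury ratings (0, no effect; 100, complete control) were assigned relative to untreated plants 10 days after treatment. Test chemicals, formulated with a surfactant-containing non-phytotoxic solvent, were applied in loam-sand soil either as a directed soil spray before emergence or to emerged plants, and plants were kept in a greenhouse.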

[2] = test system: oat, wild (wild oat, Avena fatua); experiment: as above
In short: as §1

[3] = test system: ryegrass, Italian (italian ryegrass, Lolium multiflorum); experiment: as above
In short: as §1

[4] = test system: barnyardgrass (Echinochloa crus-galli); experiment: as above
In short: as §1

[5] = test system: kochia (Bassia scoparia); experiment: as above
In short: as §1

[6] = test system: green foxtail (Setaria viridis); experiment: as above
In short: as §1

[7] = test system: palmer (palmer amaranth, palmer pigweed, Amaranthus palmeri); experiment: as above
In short: as §1

[8] = test system: galium (catchweed bedstraw, Galium aparine); experiment: as above; conditions: Postemergence, 16 g ai/ha, greenhouse 10 days; 0 no effect, 100 complete control
In short: as §1

[9] = test system: wheat (Triticum aestivum); experiment: as above
In short: as §1

[10] = test system: ragweed (common ragweed, Ambrosia artemisiifolia); experiment: as above
In short: as §1

[11] = test system: horseweed (Erigeron canadensis); experiment: as above
In short: as §1

[12] = test system: corn (Zea mays); experiment: as above
In short: as §1

[13] = test system: soybean (Glycine max); experiment: as above
In short: as §1

[14] = test system: barnyardgrass (Echinochloa crusgalli); experiment: Test B flooded paddy test, visual plant response rating 0-100; conditions: 250 g ai/ha, Flood, applied to paddy water, evaluated after 13 days
In short: (§2)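 Plants were grown to the 2-leaf stage, then pots were flooded to 3 cm above the soil and compound was applied directly to the paddy water, with that depth kept throughout.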

[15] = test system: ducksalad (Heteranthera limosa); experiment: as above; conditions: 250 g ai/ha, Flood, applied to paddy water, evaluated after 13 days
In short: as §2

[16] = test system: rice (Oryza sativa); experiment: as above; conditions: 250 g ai/ha, Flood, applied to paddy water, evaluated after 13 days
In short: as §2

[17] = test system: sedge, umbrella (small-flower umbrella sedge, Cyperus difformis); experiment: as above; conditions: 250 g ai/ha, Flood, applied to paddy water, evaluated after 13 days
In short: as §2

[18] = test system: blackgrass (Alopecurus myosuroides); experiment: Test A preemergence soil spray, visual injury rating 0-100; conditions: 10 days
In short: as §1

[19] = test system: oat, wild (wild oat, Avena fatua); experiment: as above; conditions: 10 days
In short: as §1

[20] = test system: ryegrass, Italian (italian ryegrass, Lolium multiflorum); experiment: as above; conditions: 10 days
In short: as §1

[21] = test system: barnyardgrass (Echinochloa crus-galli); experiment: as above; conditions: 10 days
In short: as §1

[22] = test system: kochia (Bassia scoparia); experiment: as above; conditions: 10 days
In short: as §1

[23] = test system: green foxtail (Setaria viridis); experiment: as above; conditions: 10 days
In short: as §1

[24] = test system: palmer (palmer amaranth, palmer pigweed, Amaranthus palmeri); experiment: as above; conditions: 10 days
In short: as §1

[25] = test system: wheat (Triticum aestivum); experiment: as above; conditions: 10 days
In short: as §1

[26] = test system: ragweed (common ragweed, Ambrosia artemisiifolia); experiment: as above; conditions: 10 days
In short: as §1

[27] = test system: corn (Zea mays); experiment: as above; conditions: 10 days
In short: as §1

[28] = test system: soybean (Glycine max); experiment: as above; conditions: 10 days
In short: as §1

[29] = 62 g ai/ha, postemergence, 10 days, 0 = no effect, 100 = complete control
[30] = Postemergence, 16 g ai/ha, greenhouse 10 days, 0 no effect, 100 complete control
[31] = 62 g ai/ha, 0 = no effect, 100 = complete control

CC1(C(=O)NC2CC=C(C(=O)OCC(F)F)C2)CN(c2cc(Cl)cc(Cl)c2)C(=O)O1 (stereo not drawn) [Compound 153]
Blackgrass plant response rating (0-100) [1, 29]: 90 | Blackgrass plant response rating (0 to 100 scale) [1, 30]: 80 | Oat, Wild plant response rating (0-100) [2, 29]: 0 | Oat, Wild plant response rating (0 to 100 scale) [2, 30]: 0 | Ryegrass, Italian plant response rating (0-100) [3, 29]: 0 | Ryegrass, Italian plant response rating (0 to 100 scale) [3, 30]: 0 | Barnyardgrass plant response rating (0-100) [4, 29]: 0 | Barnyardgrass plant response rating (0 to 100 scale) [4, 30]: 0 | Kochia plant response rating (0-100) [5, 29]: 0 | Kochia plant response rating (0 to 100 scale) [5, 30]: 0 | Foxtail, Green plant response rating (0-100) [6, 29]: 0 | Foxtail, Green plant response rating (0 to 100 scale) [6, 30]: 0 | Pigweed, Palmer plant response rating (0-100) [7, 29]: 0 | Pigweed, Palmer plant response rating (0 to 100 scale) [7, 30]: 0 | Galium plant response rating (0 to 100 scale) [8]: 0 | Wheat plant response rating (0-100) [9, 29]: 0 | Wheat plant response rating (0 to 100 scale) [9, 30]: 0 | Ragweed plant response rating (0-100) [10, 29]: 0 | Ragweed plant response rating (0 to 100 scale) [10, 30]: 0 | Horseweed plant response rating (0-100) [11, 29]: 0 | Horseweed plant response rating (0 to 100 scale) [11, 30]: 20 | Corn plant response rating (0-100) [12, 29]: 0 | Corn plant response rating (0 to 100 scale) [12, 30]: 0 | Soybean plant response rating (0-100) [13, 29]: 0 | Soybean plant response rating (0 to 100 scale) [13, 30]: 0 | Plant response rating, Barnyardgrass (0 to 100 scale, 0 is no effect and 100 is complete control) [14]: 0 | Plant response rating, Ducksalad (0 to 100 scale, 0 is no effect and 100 is complete control) [15]: 0 | Plant response rating, Rice (0 to 100 scale, 0 is no effect and 100 is complete control) [16]: 0 | Plant response rating, Sedge, Umbrella (0 to 100 scale, 0 is no effect and 100 is complete control) [17]: 0 | Blackgrass plant response rating ([18]; 16 g ai/ha, 0 to 100 scale): 0 | Blackgrass plant response rating (0-100) [18, 31]: 0 | Oat, Wild plant response rating ([19]; 16 g ai/ha, 0 to 100 scale): 0 | Oat, Wild plant response rating (0-100) [19, 31]: 0 | Ryegrass, Italian plant response rating ([20]; 16 g ai/ha, 0 to 100 scale): 0 | Ryegrass, Italian plant response rating (0-100) [20, 31]: 0 | Barnyardgrass plant response rating ([21]; 16 g ai/ha, 0 to 100 scale): 0 | Barnyardgrass plant response rating (0-100) [21, 31]: 20 | Kochia plant response rating ([22]; 16 g ai/ha, 0 to 100 scale): 0 | Kochia plant response rating (0-100) [22, 31]: 0 | Foxtail, Green plant response rating ([23]; 16 g ai/ha, 0 to 100 scale): 0 | Foxtail, Green plant response rating (0-100) [23, 31]: 0 | Pigweed, Palmer plant response rating ([24]; 16 g ai/ha, 0 to 100 scale): 0 | Pigweed, Palmer plant response rating (0-100) [24, 31]: 0 | Wheat plant response rating ([25]; 16 g ai/ha, 0 to 100 scale): 0 | Wheat plant response rating (0-100) [25, 31]: 0 | Ragweed plant response rating ([26]; 16 g ai/ha, 0 to 100 scale): 0 | Ragweed plant response rating (0-100) [26, 31]: 0 | Corn plant response rating ([27]; 16 g ai/ha, 0 to 100 scale): 0 | Corn plant response rating (0-100) [27, 31]: 0 | Soybean plant response rating ([28]; 16 g ai/ha, 0 to 100 scale): 0 | Soybean plant response rating (0-100) [28, 31]: 10
